Results as given in patent publication US4005076A, “Hydrazones of 3-formylrifamycin SV” (Gruppo Lepetit S.p.A., priority 1971, dated 1977).
Values after ≈ are worked out from the molar mass of the structure shown.

Assays:
tumor virus polymerases = test: inhibition of tumor virus polymerases, native template; format: biochemical; conditions: about 5 μg/ml
Procedure: (§1) DNA polymerase assays were carried out in a final volume of 100 μl. The assay mixture contained Tris-HCl buffer, pH 8.3, 50 mM; MgAc, 6.0 mM; dithiothreitol, 8.0 mM; NaCl, 60 mM. Adjustment of pH was carried out after addition of inhibitors which were previously dissolved in dimethylsulfoxide (DMSO). The final concentration of DMSO was 0.5% and all control samples included this amount of DMSO. An enzyme concentration that catalyzes an incorporation of approximately 1.0 pmole/hr was used in the assay. The enzyme was in most cases preincubated for 5 minutes with the inhibitor. […]
(§2) In these cases, reactions were initiated by adding enzyme to the complete reaction mixture, which included the inhibitor. […] The products were collected on Millipore filter, washed extensively with 5% TCA and 1 ml. of DMSO-ethanol 0.1 M NaCl mixture (0.5:70:29.5), dried and counted in 2 ml. of BBS3 (Beckman) and 10 ml. of liquifluor (New England Nuclear) in a Packard liquid scintillation counter.

[1] = target: T1, mouse embryo RNA-polymerase I (ME-RNA-P1) (Mus musculus, UniProt O35134+P70700); test: effect on mouse embryo RNA-polymerase I; format: biochemical
T1 construct: mouse embryo RNA-polymerase I (ME-RNA-P1); endogenous in cells; host or cells: mouse embryo cells
Excerpt: (§3) Calf-Thymus DNA. Me-RNA-P1 and ME-RNA-P2 : Single Stranded

[2] = target: T2, sarcoma virus DNA-polymerases (SSV-DNA-P) (Woolly monkey sarcoma virus, UniProt P03359); test: effect on activity of SSV-polymerase; format: biochemical; conditions: template Oligo dT.Poly rA
T2 construct: sarcoma virus DNA-polymerases (SSV-DNA-P)
Excerpt: Templates used in the Enzymatic Assays were the following: SSV-DNA-P: […]

[3] = test system: Staphylococcus aureus strain which is resistant to rifampicin (Staph. aureus Tour); test: in vitro minimal inhibitory concentration against rifampicin-resistant Staphylococcus aureus strain; format: cell-based; conditions: Staphylococcus aureus, read-out: Minimal inhibitory concentration
Procedure: In particular, compounds illustrative of the invention at concentrations of about 10 to 20 μg/ml or less inhibit the growth of a Staph. aureus Tour strain resistant to rifampicin.
One of the most important characteristics of the new hydrazones is their activity against rifampicin-resistant Staphylococcus aureus strains. Rifampicin, that is 3-(4-methyl-1-piperazinyl)iminomethylrifamycin SV, disclosed in U.S. Pat. No. 3,342,810, is the most known and widely used rifamycin derivative in therapeutic practice.
The data of the new compounds are compared with those of representative hydrazones disclosed in U.S. Pat. No. 3,342,810.

[4] = target: T3, mouse embryo RNA-polymerase II (ME-RNA-P2) (Mus musculus, UniProt P08775+Q8CFI7); test: effect on mouse embryo RNA-polymerase II; format: biochemical
T3 construct: mouse embryo RNA-polymerase II (ME-RNA-P2); endogenous in cells; host or cells: mouse embryo cells
Excerpt: as §3

normal polymerases = test: effect on normal polymerases, native template; format: biochemical; conditions: about 5 μg/ml
Procedure: as §1, §2

[5] = test system: mouse embryo DNA-polymerase II (ME-DNA-P2); test: effect on mouse embryo DNA-polymerase II; format: biochemical; conditions: activated Calf-Thymus DNA
Excerpt: (§4) Oligo dT.Poly rA. ME-DNA-P1 and ME-DNA-p2 : activated

[6] = test system: mouse embryo DNA-polymerase I (ME-DNA-P1); test: effect on mouse embryo DNA-polymerase I; format: biochemical; conditions: activated Calf-Thymus DNA
Excerpt: as §4

[7] = target: T4, RNA-dependent DNA polymerase of murine sarcoma virus (Moloney murine leukemia virus, UniProt P03355); test: inhibition of RNA-dependent DNA polymerase of murine sarcoma virus (3H-dTTP incorporation); format: biochemical; conditions: at a concentration of 2-100 μg/ml or less; 60 min
T4 construct: The virion polymerase was purified 20-40 fold; made in house; host or cells: virions from MSV (Moloney) transformed rat 78A1 cells and MSV (Harvey) transformed mouse MEH cells; disrupted virus or polymerase purified 20-40 fold
Procedure: The inhibiting activity of the inventive compounds has been tested on RNA-dependent DNA polymerase of murine sarcoma virus (endogenous) and RNA-dependent DNA polymerase activity of purified enzymes. The inhibition was tested according to the methods described by C. Gurgo et al., Nature, New Biology, 229, 111, 1971. The effect of different concentrations of drugs on polymerase activity was determined by following ^3 H-dTTP (tritiated thymine deoxyriboside triphosphate) incorporation into the insoluble fraction. A typical example of the experimental procedures is the following.
Virus was isolated and purified from murine sarcoma virus (Moloney isolate) transformed rat cells (78Al cells) and murine sarcoma virus (Harvey isolate) transformed mouse cells (MEH cells) as previously described (Green et al., Proc. Nat. Acad. Sci. USA 67, 385-393, 1970, Rokutanda et al., Nature, 227, 1026-1028, 1970). The virion polymerase was purified 20-40 fold by incubation of purified virus with 0.5% NP-40 (nonidet P-40) in 0.1 M NaCl, 0.01 M Tris buffer (pH 7.6), 0.001 M EDTA for 5 minutes at room temperature and zonal centrifugation in 15-30% sucrose gradients in 10 mM sodium phosphate buffer (pH 7.4), 2.5 mM MgCl2, 10 mM dithiothreitol, and 5% glycerol for 24 hours at 38,000 rpm in a Spinco SW41 rotor. The peak fractions of enzyme activity (13-17) of 22 fractions collected, were pooled and stored at -70° C. in 30% glycerol.
Enzyme incubation was performed for 1 hour at 37° C. in 100 μl of reaction mixture containing 40 mM Tris buffer (pH 8.0), 5 mM dithiothreitol, 30 mM NaCl, 2.5 mM MgCl2, 0.1 mM dATP, dGTP, dCTP, and 10 μCi of ^3 H-dTTP (12-18 Ci/mmole) as described by Green et al. in Proc. Nat. Acad. Sci. USA 67, 385-393, 1970. The reaction was terminated by the addition of 150 μl of 1N perchloric acid. Calf thymus DNA (100 μg) was added as carrier; the radioactive DNA product was processed as described in the two papers mentioned above. Endogenous RNA-dependent DNA-polymerase activity was measured after the addition of 0.01% NP-40 to purified virus at the time of assay. The DNA-polymerase activity of purified viral polymerase was measured with 2 μg of poly d (A-T) as template and no NP-40.
Rifamycin derivatives of this invention were dissolved in dimethylsulfoxide (DMSO) at a concentration of 5 mg/ml and stored at 4° C. Inhibition of the endogenous RNA-dependent DNA-polymerase activity was tested by adding 2 μl of derivative appropriately diluted in DMSO or 2 μl of DMSO (control) to the assay mixture prior to addition to disrupted virus which contained 15 to 30 μg of viral protein. Enzyme incubation was performed for 60 minutes at 37° C. Inhibition of purified enzyme was tested by pre-incubation of 2 μl of derivative or DMSO with 30 μl of enzyme (1 to 2 μg of protein) for 10 minutes at 37° C.; then 70 μl of substrate mixture were added and the mixture further incubated and processed as described above.

T2 sequence (P03359 642-1310): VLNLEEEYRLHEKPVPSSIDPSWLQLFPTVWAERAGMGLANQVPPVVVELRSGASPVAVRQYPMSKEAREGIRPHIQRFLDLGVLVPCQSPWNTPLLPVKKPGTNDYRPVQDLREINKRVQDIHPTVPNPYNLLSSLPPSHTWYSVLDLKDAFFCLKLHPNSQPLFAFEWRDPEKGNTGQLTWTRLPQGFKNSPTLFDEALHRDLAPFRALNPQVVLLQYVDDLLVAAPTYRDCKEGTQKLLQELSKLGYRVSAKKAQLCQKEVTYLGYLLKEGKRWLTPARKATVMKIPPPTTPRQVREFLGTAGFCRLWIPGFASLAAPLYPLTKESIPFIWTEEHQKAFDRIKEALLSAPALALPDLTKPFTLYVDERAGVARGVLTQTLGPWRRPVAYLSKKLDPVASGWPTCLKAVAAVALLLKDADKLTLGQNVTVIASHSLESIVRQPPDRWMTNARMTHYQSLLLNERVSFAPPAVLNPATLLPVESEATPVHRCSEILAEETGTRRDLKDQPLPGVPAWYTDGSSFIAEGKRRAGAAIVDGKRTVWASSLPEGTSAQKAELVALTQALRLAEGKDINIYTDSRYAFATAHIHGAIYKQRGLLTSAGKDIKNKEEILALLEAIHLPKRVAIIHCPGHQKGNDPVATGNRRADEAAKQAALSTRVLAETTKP

COC1C=COC2(C)Oc3c(C)c(O)c4c(O)c(c(C=NNc5ccc([N+](=O)[O-])cc5[N+](=O)[O-])c(O)c4c3C2=O)NC(=O)C(C)=CC=CC(C)C(O)C(C)C(O)C(C)C(OC(C)=O)C1C (centres unmarked) [Example 12]
inhibition of tumor virus polymerases (tumor virus polymerases): 44% | remaining activity at 10 µg ([1]; read-out: % Control Activity of ME-RNA-P1 at 10μg): 115% | remaining activity at 100 µg ([1]; read-out: % Control Activity of ME-RNA-P1 at 100μg): 100% | % Control Activity of SSV-DNA-P at 5μg ([2]; 5μg): 44% | % Control Activity of SSV-DNA-P at 10μg ([2]; 10μg): 34% | % Control Activity of SSV-DNA-P at 100μg ([2]; 100μg): 1% | MIC [3]: 10 µg/mL (≈ 11 µM) | remaining activity at 10 µg ([4]; read-out: % Control Activity of ME-RNA-P2 at 10μg): 92% | remaining activity at 100 µg ([4]; read-out: % Control Activity of ME-RNA-P2 at 100μg): 72% | activity on normal polymerases (normal polymerases): practically inactive | % Control Activity of ME-DNA-P2 at 5μg ([5]; 5μg): 72% | % Control Activity of ME-DNA-P2 at 10μg ([5]; 10μg): 83% | % Control Activity of ME-DNA-P2 at 100μg ([5]; 100μg): 46% | % Control Activity of ME-DNA-P1 at 5μg ([6]; 5μg): 102% | % Control Activity of ME-DNA-P1 at 10μg ([6]; 10μg): 83% | % Control Activity of ME-DNA-P1 at 100μg ([6]; 100μg): 11% | incorporation of H3-dTTP relative to that found in the control tests [7]: less than 10%
